According to PubChem BioAssay (NCI):
Several values for one entry are separate records, joined by “and”; a condition that tells them apart may be missing. Equal values may be shown once.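 Test compounds were applied to cells in 96-well plates for 48 hours at 5 doses. The concentration for 50% growth inhibition is given as GI50. TGI marks complete inhibition of growth.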

How the values were obtained:
Assay in all cases: inhibition of tumour cell growth, NCI panel, 48 h
TK-10 renal = tested on: TK-10 renal
U251 CNS = tested on: U251 CNS
HL-60(TB) leukemia = tested on: HL-60(TB) leukemia
NCI-H226 lung = tested on: NCI-H226 lung
OVCAR-8 ovarian = tested on: OVCAR-8 ovarian
HCT-15 colon = tested on: HCT-15 colon
KM12 colon = tested on: KM12 colon
EKVX NSCLC = tested on: EKVX NSCLC
M14 melanoma = tested on: M14 melanoma
MOLT-4 leukemia = tested on: MOLT-4 leukemia

SMILES	TGI (TK-10 renal) [µM]	TGI (U251 CNS) [µM]	TGI (HL-60(TB) leukemia)	TGI (NCI-H226 lung) [µM]	TGI (OVCAR-8 ovarian) [µM]	TGI (HCT-15 colon) [µM]	TGI (KM12 colon) [µM]	TGI (EKVX NSCLC) [µM]	TGI (M14 melanoma) [µM]	TGI (MOLT-4 leukemia) [µM]	GI50 (TK-10 renal) [µM]	GI50 (U251 CNS) [µM]	GI50 (HL-60(TB) leukemia) [µM]	GI50 (NCI-H226 lung) [µM]	GI50 (OVCAR-8 ovarian) [µM]	GI50 (HCT-15 colon) [µM]	GI50 (KM12 colon) [µM]	GI50 (EKVX NSCLC) [µM]	GI50 (M14 melanoma) [µM]	GI50 (MOLT-4 leukemia) [µM]
COc1ccc2c(c1)[n+](=O)c(C(=O)CC(=O)C(=O)Nc1cccc(C)c1C)c(C)n2[O-]	> 100	> 100	> 100 µM	> 100	> 100	> 100	> 100	> 100	> 100	> 100										
Cc1noc(C)c1-c1cnc2c(-c3ccc(C(=O)O)cc3)cn([C@@H](C)c3ccccn3)c2c1	> 100	> 100	> 100 µM	> 46.6	> 100	> 100	> 100	> 100	> 100	> 100	0.405	3.38	0.253	5.02	2.89	0.418	2.73	0.58	0.629	12.6
Oc1c(O)c(Cl)c(Cl)c(Cl)c1Cl	47.7	86.2	7.21 µM	24.3	13.9	19.4	19.7	18.9	15.4	69.7	9.42	4.21	1.85	4.62	2.89	3.56	3.96	2.95	3.51	3.51
COc1cc(NC(C)CCCNC(C)C)c2ncccc2c1OC (stereo unspecified)		> 100	72.4 µM	> 100	> 100	> 100	> 100	> 100	> 100	> 100		> 100	14.2	> 100	> 100	> 100	> 100	36.4	> 100	> 100
CCN(CC)c1nc(NC2CCCCC2)c2nc(N(CC)CC)nc(NC3CCCCC3)c2n1	> 100	> 100	> 100 µM	> 100	> 100	> 100	> 100	> 100	> 100	> 100										
Nc1ccccc1C(=O)NC(=O)Nc1ccc(Oc2ncc(Br)cn2)c(Cl)c1	13.8	12.4	0.0451 µM and 0.232 µM	1.49	4.77	22.6	9.56	29.6	2.08	33.9			0.00489					0.0198		0.0511
S=C(CSc1ccccc1)Nc1cccc2ccccc12	> 100	> 100	> 100 µM	> 100	> 100	> 100	> 100	> 100	> 100	63.2										
C=C(CN1c2ccccc2Sc2ccccc21)c1ccc(C(=O)Nc2ccccc2N)cc1	> 100	> 100	> 100 µM	> 100	> 100	> 100	> 100	> 100	> 100	> 65.2	23.9	> 50.3	0.184	8.53	> 80.4	> 42.5	5.84	> 86	32.9	0.276
Cc1c(C)c2c(c(C)c1OCC(=O)O)CC[C@@](C)(CCC[C@@H](C)CCC[C@@H](C)CCCC(C)C)O2	154	133	156 µM	244	152	120	173	148	114	202	85.6	52.7	77.2	89	59.4	40.8	63.3	64.2	41.1	50.4
O=C(Oc1ccccc1)C(Br)C(Br)c1ccccc1 (stereo unspecified)	4.95	15.8	15.9 µM	18.7	21.8	6.24	3.75	24.8	7.51	11.9	2.19	4.13	3.13	5	6.11	2.32	1.93	11.9	2.68	3.09
COc1ccc2[nH]c(C(=O)OCc3ccc4cccc(O)c4n3)cc2c1	3.27	3.15	3.4 µM	3.14	4.04	3.18	3.9	2.89	2.04	2.99	1.81	1.67	1.18	1.4	1.38	0.757	1.94	1.51	0.564	0.641
OC(COc1ccccc1)CN1CCCCC1 (stereo unspecified)	> 100	> 100	> 100 µM	> 100	> 100	> 100	> 100	> 100	> 100	> 100										
O=C(Nc1ccc2c(c1)OCCO2)C(=O)c1c[nH]c2ccccc12	31.4	15.9	> 32.9 µM	61.3	35.7	> 100	> 100	> 100	> 100	> 100	6.75	1.63	1.21	5.03	2.37	0.967	0.469	5.37	0.839	0.618
CCC(C)(O)c1cn(-c2ccc(S(=O)(=O)O)cc2)nn1 (stereo unspecified)	> 100	> 100	> 100 µM	> 100	> 100	> 100	> 100	> 100	> 100	> 100										
CC1(C)C(=O)C(=Cc2ccco2)C1=O	> 100	> 100	> 100 µM	> 100	> 100	> 100	> 100	> 100	> 100	> 100										
